The series in a line: Human HepG2 cell viability assay in 384 well format. The class given is toxicity, cell-based. Further details: dose 125 nL, time 70.5 hour; cytotoxicity at 70.5 h: concentration not given beside the values. The conditions noted are these: HepG2 cells, read-out: Inhibition.
`CCn1c(C2CCCN(Cc3ccc(F)cc3Cl)C2)nn(C)c1=O` (stereo not drawn): the cytotoxicity at 70.5 h turned out to be 6.43%.
As for `CC(NCc1ccncc1)c1cc2c(cc1Br)OCCO2` (stereo not drawn), the cytotoxicity at 70.5 h was -4.83%.
The figure for `CNC(=O)c1cn[nH]c1C1(C)CCCN(Cc2ccccc2OC)C1` (stereo not drawn) is 3.23%.
Under `CO[C@@H]1CCN(c2ncc(F)cn2)[C@H]1Cc1cnn(C)c1` stands -11.6%; under `O=C(C1CC1)N1C[C@@H](F)[C@@H](OCc2nc3ccccc3o2)C1`, 0.185%; under `CC(C)n1c(C(=O)N2CCCC2)nc2c1CCN(c1ncccn1)C2`, 0.473%.
The figure for `CCOC(=O)CNC(=O)NCc1cccn1Cc1ccc(F)cc1` is 22.9%; for `COc1cc(N2CC[C@@H]3O[C@@H](C(=O)NCCN(C)C)C[C@@H]32)ncn1` it is -9.68%.
Regarding `c1ccc(CC2CCN(Cc3ccnc(-c4cccnc4)n3)CC2)cc1`, the cytotoxicity at 70.5 h is -3.3%.
As for `CCn1cc(CNC2CCN(c3c(F)cccc3F)C2)cn1` (stereo not drawn), the cytotoxicity at 70.5 h was -0.658%.
The figure for `CCn1cnnc1CNC(=O)Cc1ccc2c(c1)OCCO2` is -14.5%; for `CCN1C(=O)CCC12CCN(S(=O)(=O)c1ccc(C#N)cc1)CC2` it is 15.5%.
As to `Cc1nc2ccccc2nc1CN1CCOC(Cn2cccn2)C1` (stereo not drawn), the cytotoxicity at 70.5 h was -9.86%.
The figure for `O=C1CCCN1CCc1nc(-c2ccsc2)no1` is -14.2%.
Under `CC(C(=O)NCC1CCCCC1)S(=O)(=O)Cc1csc(-c2cccs2)n1` (stereo not drawn) stands -9.36%; under `Cc1ccc(C(NCC(=O)N2CCNC(=O)C2)c2ccccc2)cc1` (stereo not drawn), -104%.
The figure for `CCn1ccc(C(=O)N2CCCC2c2nnc(-c3scnc3C)o2)n1` (stereo not drawn) is -6.79%; for `CC(C)C1=NOC(c2nc(Cc3ccccc3)no2)C1` (stereo not drawn) it is -1.11%; for `Cc1cc(CCC(N)=O)cc(C2CCCN2Cc2ccnn2C)n1` (stereo not drawn) it is -6.78%.
As to `CC(NC(=O)C1CCN(C(C)C)CC1)c1nncn1C1CCCC1` (stereo not drawn), the cytotoxicity at 70.5 h is -4.33%.
With `COc1ccc(S(=O)(=O)Cc2noc(CC(C)C)n2)cc1`, the cytotoxicity at 70.5 h worked out at 5.74%.
Under `CC(C)[C@H]1COC(=O)N1Cc1nccn1C(C)C` stands -4.48%.
The figure for `CCN1CC(C(=O)N2CCN(c3cnn(C)c(=O)c3)CC2)CCC1=O` (stereo not drawn) is -9.64%; for `N#Cc1ccc(CSCCN2CCOCC2)cc1` it is -5.15%; for `CC(C)CCc1noc(CN2CCCN(C(=O)c3ccco3)CC2)n1` it is -0.918%.
The figure for `CC1(C)OCC2(CO1)CN(S(=O)(=O)c1ccc(Br)s1)C2` is 4.85%; for `CCc1cc(CN(C)C(=O)C2CC(=O)N(c3cccc(O)c3)C2)on1` (stereo not drawn) it is -1.3%; for `CC(=O)NCC[C@H]1CC(C)(C)Oc2ccccc21` it is -4.17%.
Consider `O=C(Nc1ccc(CCN2CCOCC2)cc1)C1CCCC1`, for which the cytotoxicity at 70.5 h is -3.35%.
The figure for `O=C(Cc1cccnc1)N1CCC(c2nnc(-c3ccccn3)o2)CC1` is 25.5%; for `CN(C)C(=O)CN1C[C@H]2CN(Cc3cccc(F)c3)C(=O)[C@H]2C1` it is -5.27%.
The figure for `COC(=O)[C@H](CCSC)NC(=O)Cn1ccc2c(Cl)cccc21` is -17.2%.
Take `CCCC(=O)Nc1cc(C(=O)NC(C)Cc2ccncc2)ccc1C` (stereo not drawn): the cytotoxicity at 70.5 h is -5.95%.
The figure for `CCC(CC)N(Cc1ccc2c(c1)OCO2)C(=O)c1ccc(=O)n(C)c1` is -1.82%; for `CC(C)NC(=O)Nc1ccc2c(c1)ncn2CC(=O)NCCN(C)C` it is -12.7%.
The figure for `Cc1ccc(-c2nccn2-c2ccc(OC3CCN(C)CC3)cc2)o1` is 17%; for `Cc1nc(-c2ccccc2)cc2nn(CC(N)=O)c(=O)n12` it is -2.53%; for `C[C@@H]1CN(S(=O)(=O)N2CCCCCC2)C[C@@]1(O)C1CCC1` it is -8.97%.
Regarding `Cc1csc(C(=O)N2CCC(S(C)(=O)=O)CC2)c1`, the cytotoxicity at 70.5 h is -5.62%.
The figure for `Cc1nc(N2CCCN(c3ncccn3)CC2)c2cnn(C)c2n1` is -3.77%; for `CC(C)(C)c1n[nH]cc1CNCC1CCN(C2CC2)C1` (stereo not drawn) it is -6.24%; for `CNS(=O)(=O)c1ccc(CNC(=O)c2cccc(C)n2)cc1` it is 16.9%.
On to `COc1ccc(-c2nc3c([nH]2)CCNC3)c(OC)c1OC`, for which the cytotoxicity at 70.5 h turned out to be 1.85%.
The figure for `Cc1nc(N2CCC(CN3CCCC3)CC2)c2cnn(C)c2n1` is -2.49%; for `CC(=O)c1cn(CC(=O)N2CCC3(CC2)OCCO3)c2ccccc12` it is -5.36%.
For `Cc1nc(NC(=O)c2c(-n3cnnn3)sc(C)c2C)sc1C`, the cytotoxicity at 70.5 h is -8.41%.
The figure for `Cc1cc(F)c2c(c1)CCCN2Cc1cc(=O)n(C)c(=O)n1C` is -8.84%.
The figure for `CCOC1CCCN(C(=O)c2[nH]nc(C(C)C)c2Br)C1` (stereo not drawn) is 11.3%; for `CCOCC1CN(CCOc2ccc(Cl)cc2)Cc2c1cnn2C` (stereo not drawn) it is 2.89%.
The figure for `CC(C)NC(=O)NC[C@H]1OC[C@@H](NCc2ccc(F)cc2)[C@@H]1O` is -4.37%.
Turning to `Cn1cnc2c1CCN(CC(=O)N(Cc1ccsc1)C1CC1)C2`, the cytotoxicity at 70.5 h was 0.271%.
The figure for `O=C(C1CCCC1)N1CCOC(c2nc(-c3ncccn3)no2)C1` (stereo not drawn) is -4.9%; for `Cc1noc(C)c1-c1nc(C2CCCN(C(=O)C(C)C)C2)ccc1CO` (stereo not drawn) it is -2.96%.
The figure for `CC(C)(C)c1cc(NC(=O)C2COCCO2)n(-c2ccccn2)n1` (stereo not drawn) is -0.749%.
Under `Cc1cnn(CCNCC(=O)Nc2ccc(Br)cn2)c1` stands -4.64%; under `Cc1ccc(N2Cc3cnn(C)c3C(COCC3CC3)C2)nn1` (stereo not drawn), -4.86%; under `CN(C)C(=O)NCc1cc(=O)n2c(n1)CN(Cc1ccoc1)CCC2`, 16.4%.
With `CN1CCCC1c1cccc(Cc2ccc(F)cc2)n1` (stereo not drawn), the cytotoxicity at 70.5 h was found to be 17%.
The figure for `O=C(NC[C@]12COC[C@H]1CN(Cc1nccs1)C2)N1CCCC1` is -13.4%; for `CN(Cc1cnn(C)c1)C(=O)NCc1ccc2c(c1)OCCO2` it is 0.47%; for `O=C(Nc1ccccc1)[C@H]1C[C@@H]2CN(Cc3cccnc3)C[C@H]1O2` it is -5.98%.
Take `CC(C)c1nnc2n1CC(CNCc1cccnc1)CC2` (stereo not drawn): the cytotoxicity at 70.5 h was -6.45%.
The figure for `Cc1noc(CNc2ccc(OC(F)F)cc2OC(F)F)n1` is -2.77%; for `Cc1nnc2n1CCN(C(C(=O)N1CCCCC1)c1ccccc1)C2` (stereo not drawn) it is -1.38%; for `CN(C)C(=O)N1Cc2nnn(CC3CC3)c2C(COCC2CC2)C1` (stereo not drawn) it is -6.92%.
The figure for `Cc1nc(N2CCN(C)CC2)ncc1C(=O)N1CC(C)(C)C(C)(O)C1` (stereo not drawn) is 14.1%; for `Cn1cc(CN2CC[C@H]3C[C@H](c4nc(C5CC5)cs4)O[C@@H]3C2)cn1` it is -12.5%; for `O=C(Nc1ccc(CCN2CCC(O)CC2)cc1)Nc1cccnc1` it is -1.85%.
Under `CC(C)CN1CCC(C(=O)NCCNC(=O)c2ccoc2)CC1` stands -1.22%.
`Cc1c(C(=O)O)cnn1-c1ccc(-c2nc(C3CC3)no2)cn1`: the cytotoxicity at 70.5 h was -14%.
Under `CCCNC(=O)C(C)n1cc(Br)cn1` (stereo not drawn) stands -11.8%; under `CC(C)C(=O)NS(=O)(=O)c1ccc2c(c1)N(C)CCC2`, -8.04%.
The figure for `Cc1ccsc1-c1nccn1CCN1CCCCC1CO` (stereo not drawn) is -4.24%; for `COc1ccc2cc(NC(=O)CCNc3ncccn3)cnc2c1` it is -29.1%.
The figure for `COc1cccc(-c2nnn(C3CCN(CC(F)(F)F)C3=O)n2)c1` (stereo not drawn) is 0.471%; for `CC(C)COC1CC2(CCN(C(=O)Cc3ccccn3)CC2)C1` it is -11.8%.
As for `CCc1c(O)n(C(C)CC)c(SCC(=O)c2ccccc2)nc1=O` (stereo not drawn), the cytotoxicity at 70.5 h is -8.65%.
Under `C=C(C)CN(CC)Cc1nc(C(C)(C)C)no1` stands 10.8%; under `CCCc1cnc(C)nc1N1CCC(Cn2cc(CO)nn2)CC1`, -3.5%.
As for `NC(=O)NC(=O)CNc1cccc(C(=O)c2ccccc2)c1`, the cytotoxicity at 70.5 h turned out to be 13.6%.
As for `CC(C)c1nnc2n1CCN(Cc1nc(-c3ccoc3)no1)C2`, the cytotoxicity at 70.5 h was determined as 16.7%.
Under `O=C(CC1CC1)N(Cc1cccnc1)CC1CCN(C2CCCC2)CC1` stands -1.09%.
For the compound `Nc1nc2c(c(NCC(c3cccnc3)N3CCOCC3)n1)CCCC2` (stereo not drawn), the cytotoxicity at 70.5 h is -12.1%.
Under `Cc1ccc(F)c(OC2(C(=O)O)CCN(C(=O)c3ccncc3)CC2)c1` stands -4.46%.
Turning to `CCCc1ccc(C(=O)N2Cc3c(Cn4ccnc4)nn(C)c3C2)cc1`, the cytotoxicity at 70.5 h is -8.3%.
Under `CCn1nc(C)c2c1cnn2CCNS(C)(=O)=O` stands -6.31%; under `Cc1n[nH]c(C)c1CNC(=O)c1cn(CCC2CCCCN2)nn1` (stereo not drawn), -1.34%; under `CCS(=O)(=O)N1CCC(Nc2c(F)cc(C#N)cc2F)CC1`, -9.63%.
Under `CC(Nc1ccc(Oc2cccc(C#N)c2)cc1)C(=O)NC1CC1` (stereo not drawn) stands -3.83%; under `CCN1CC(COC(=O)c2ccc(N(C)C)cc2F)CC1=O` (stereo not drawn), -3.33%; under `COCCN(C)CCN1CC2(CCN(C3CCOC3)CC2)OC1=O` (stereo not drawn), -0.423%.
Under `CN1CCN(C(=O)c2nc3c(o2)CN(C(=O)c2cccnc2)C3)CC1` stands -6.31%; under `CCNC(=O)CN1CCC(OCC2CCCO2)CC1` (stereo not drawn), -6.63%.
With `Cc1ccccc1-n1cc(-c2ccnc(N[C@H](CO)C(C)C)n2)cn1`, the cytotoxicity at 70.5 h is -14.1%.
The figure for `O=C(NCC1CCS(=O)(=O)C1)N1CCN(c2cnccn2)CC1` (stereo not drawn) is 3.28%; for `CC(=O)N1CC[C@H]2CC(=O)N(C3CCCCC3)CC[C@H]2C1` it is -2.68%.
Under `COC(=O)CNC(=O)c1cc(-c2ccccc2)nc2ncnn12` stands -0.256%; under `Cc1noc(C)c1C1CCCN1C(=O)CN1C(=O)OC(C)(C)C1=O` (stereo not drawn), 26.8%.

The values are drawn from ChEMBL document CHEMBL3507680, “University of Dundee, Gates Library screen for HepG2 cell viability”.
